Assays:
Omicron variant = experiment: Target concentration needed to achieve EC90; format: cell-based, SARS-CoV-2
[1] = test system: Omicron XBB.1.9.1 variant; design: method as in Chen et al., 2024; details: ref Chen et al., 2024, read-out: concentration for 90% of maximal effect (EC90); cited from earlier work

For `O=C(NC1CCCC1)C(=O)[C@H](C[C@@H]1CCNC1=O)NC(=O)[C@@H]1[C@H]2CCC[C@H]2CN1C(=O)[C@@H](NC(=O)C(F)(F)F)C1CCCCC1` [leritrelvir], the “concentration needed to achieve EC90” value (Omicron variant) is listed as 0.2097 µg/mL and the EC90 [1] is listed as 415 nM.

— paper PMC11387175, “Model informed dose regimen optimizing in development of leritrelvir for the treatment of mild or moderate COVID-19” (Frontiers in Pharmacology, 2024)
